The record followed here is US10098861B1 (SyneuRx International (Taiwan) Corp., priority 2017, dated 2018).

For the series the following is noted: 500 mg, >90% RH, ambient temperature, 5 days.

SMILES strings stand for the structures.

Turning to `O=C([O-])c1ccccc1.[Na+]` [sodium benzoate], the “change in XRPD pattern” value was “significant changes”.
